# Laboratory results taken from US20260248771A1, “VALBENAZINE, A VMAT2 INHIBITOR, AS A FREE BASE A TOSYLATE OR DITOSYLATE SALT, FOR USE IN THE TREATMENT OF CHOREA ASSOCIATED WITH HUNTINGTON'S DISEASE” (Neurocrine Biosciences, Inc., priority 2022, published 2026).
# Assays:
# Assay type in all cases: in vivo, human
# [1] = tested on: subjects with HD; assay: Phase 3 study: Patient Global Impression of Change (PGI-C) response status
# Text: In certain embodiments, the method is effective to result in an improvement in Patient Global Impression of Change (PGI-C) response status, wherein subjects whose score is either a 1 (“very much improved”) or a 2 (“much improved”) in PGI-C were classified as responders. In certain embodiments, at least about 20%, such as at least about 25%, at least about 30%, at least about 35%, at least about 40%, at least about 50%, at least about 55%, were classified as responders. In certain embodiments, at least about 25% of subjects were classified as responders after 12 weeks of treatment.
# (§1) A Phase 3, randomized, double-blind, placebo-controlled study to evaluate the efficacy, safety, and tolerability of once-daily valbenazine in subjects with HD was conducted. The study included a 4-week screening period, an 8-week dose-adjustment period, a 4-week maintenance period, and a final study visit 2 weeks following the final dose of study drug.
# (§2) Secondary endpoints included: • Clinical Global Impression of Change (CGI-C) response status ([…] of “very much improved” or “much improved”) at Week 12; • Patient Global Impression of Change (PGI-C) response status ([…] of “very much improved” or “much improved”) at Week 12; • Change from baseline to Week 12 in the Quality of Life in Neurological Disorders Upper Extremity Function; and • Change from baseline to Week 12 in the Neuro-QoL Lower Extremity Function.
# (§3) Exploratory endpoints included: • Wearable movement sensors (in select sites; optional participation) using MC10 Inc., BIOSTAMP® NPOINT® system • Huntington Disease Health Index • Changes from the screening period baseline to each postbaseline study visit (Weeks 2 through 12) in the TMC based on site assessments • Changes from the screening period baseline to maintenance (the average of the Week 10 and Week 12 assessments) in the TMC based on video recording central rater assessments • CGI-C response at Weeks 2 through 10 • PGI-C response at Weeks 2 through 10 • The change from baseline to Weeks 4, 8, and 10 in the Neuro-QoL Upper Extremity Function T-score. • The change from baseline to Weeks 4, 8, and 10 in the Neuro-QoL Lower Extremity Function T-score • CGI-S at Weeks 2 through 12 • PGI-S at Weeks 2 through 12 • SF-36 at Week 12 • HD-HI at Week 10 and Week 12 • EQ-5D-5L at Week 10 and Week 12 • UHDRS scores for motor, behavior, and functional capacity assessment at Weeks 2 through 12 • Other UHDRS scores including functional assessment and independence scale at Week 12 • AS at Week 12 • Change from screening period in physical activity by movement sensors at the Week 10 visit period
# [2] = tested on: subjects with HD; assay: Phase 3 study: Huntington Disease Health Index (HD-HI); conditions: for HD-HI hand and arm function subscale, change from baseline / HD-HI involuntary movements subscale, change from baseline / HD-HI mobility subscale, change from baseline: valbenazine group
# Text: as §3
# The HD-HI includes 13 subscales that measure 13 individual areas of health in patients with HD. Observed values and change from baseline were summarized descriptively for each subscale and the total instrument score by treatment group and visit.
# [3] = tested on: subjects with HD; assay: Phase 3 study: EuroQol 5 Dimensions 5 Levels (EQ-5D-5L)
# Text: as §3, with “visit period […]” for “visit period”
# [4] = tested on: subjects with HD; assay: Phase 3 study: Short Form 36 Health Survey (SF-36); conditions: Week 12
# Text: as §3
# The SF-36 is 36-item questionnaire that measures health on 8 dimensions. […]
# [5] = tested on: subjects with HD; assay: Phase 3 study: Neuro-QoL Lower Extremity Function T-score
# Text: As used herein, “Neuro-QoL” is a set of self-report measures that assesses the health-related quality of life (HRQOL) of adults and children with neurological disorders. Neuro-QoL Upper Extremity Function scale measures one's ability across fine motor and activities of daily living involving digital, manual and reach-related function and self-care. Neuro-QoL Lower Extremity Function scale measures one's ability to carry out various activities involving the trunk region and increasing degrees of bodily movement, ambulation, balance or endurance. See, National Institute of Neurological Disorders and Stroke (NINDS). User Manual for the Quality of Life in Neurological Disorders (Neuro-QoL) Measures, Version 2.0, March 2015, which is incorporated herein by reference in its entirety.
# A Phase 3, randomized, double-blind, placebo-controlled study to evaluate the efficacy, safety, and tolerability of once-daily valbenazine in subjects with HD was conducted. The study included a 4-week screening period, an 8-week dose-adjustment period, a 4-week maintenance period, and a final study visit 2 weeks following the final dose of study drug. […]
# [6] = tested on: subjects with HD; assay: Phase 3 study: Clinical Global Impression of Change (CGI-C) response status
# Text: As used herein, “Clinical Global Impression of Change” or CGI-C refers to a rating instrument based on a 7-point scale (range: 1=very much improved to 7-very much worse) that can be used to rate the overall global improvement of chorea since the initiation of study drug dosing. This scale is a modification of a scale developed by the Psychopharmacology Research Branch of the National Institute of Mental Health to rate the subject's overall improvement in clinical disorder and provides a global evaluation of improvement over time from the clinician's perspective.
# In certain embodiments, the method is effective to result in an improvement in Clinical Global Impression of Change (CGI-C) response status, wherein subjects whose score is either a 1 (“very much improved”) or a 2 (“much improved”) in CGI-C were classified as responders. In certain embodiments, at least about 9% of subjects were classified as responders. In certain embodiments, at least about 10%, such as at least about 15%, at least about 20%, at least about 25%, or at least about 30% of subjects were classified as responders. In certain embodiments, at least about 25%, or at least about 30% of subjects were classified as responders after 12 weeks of treatment.
# as §1, §2, §3
# [7] = Week 12, valbenazine vs placebo
structure (smiles),measurement,setting,value
"COc1cc2c(cc1OC)[C@H]1C[C@@H](OC(=O)[C@@H](N)C(C)C)[C@H](CC(C)C)CN1CC2 [Valbenazine, (S)-2-amino-3-methyl-butyric acid (2R,3R,11bR)-3-isobutyl-9,10-dimethoxy-1,3,4,6,7,11b-hexahydro-2H-pyrido[2,1-a]isoquinolin-2-yl ester]",PGI-C response rate difference between treatment groups (valbenazine minus placebo),[1]; Week 2,"through 10 as follows: Week 2 (18.52% [95% CI: 5.48, 31.41],"
same,PGI-C response rate difference between treatment groups (valbenazine minus placebo),[1]; Week 4,"nominal p = 0.0042), Week 4 (18.57% [95% CI: 3.79, 32.70], nominal"
same,PGI-C response rate difference between treatment groups (valbenazine minus placebo),[1]; Week 6,"p = 0.0120), Week 6 (23.08% [95% CI: 5.60, 39.04], nominal"
same,PGI-C response rate difference between treatment groups (valbenazine minus placebo),[1]; Week 8,"p = 0.0064), Week 8 (26.44% [95% CI: 7.70, 42.49], nominal"
same,PGI-C response rate difference between treatment groups (valbenazine minus placebo),[1]; Week 10,"p = 0.0037), and Week 10 (16.94% [95% CI: −1.37, 34.63], nominal"
same,"PGI-C @ week 12, % responders","[1]; Week 12, valbenazine group",52.7%
same,"PGI-C @ week 12, % responders, Difference",[1]; [7],26.3%
same,"HD-HI hand and arm function subscale, change from baseline",[2]; Week 10,−7.154
same,"HD-HI involuntary movements subscale, change from baseline",[2]; Week 10,−12.220
same,"HD-HI mobility subscale, change from baseline",[2]; Week 10,placebo for mobility (Week 10: −6.319 valbenazine vs −4.131
same,"HD-HI involuntary movements subscale, LS mean difference between treatment groups","[2]; Week 12, ANCOVA model",LS mean difference between treatment groups of −6.662 (95%
same,"HD-HI hand and arm function subscale, change from baseline",[2]; Week 12,−7.169
same,"HD-HI involuntary movements subscale, change from baseline",[2]; Week 12,−11.195
same,"HD-HI mobility subscale, change from baseline",[2]; Week 12,"placebo; Week 12: −4.208 vs −2.708), involuntary movements (Week"
same,"HD-HI total score, changes from baseline",[2]; Weeks 10 and 12,valbenazine group. No meaningful changes in the HD-HI total score
same,"EQ-5D-5L health index score and distribution of scores for each dimension, differences between treatment groups",[3]; baseline to Weeks 10 and 12,No notable differences between treatment groups were observed
same,EQ-5D-5L shift toward worsening in any dimension,[3]; valbenazine group,index score and distribution of scores for each dimension. No shift
same,"SF-36 subscales and summary scales, differences between treatment groups",[4],No notable differences were observed at Week 12 between treatment
same,"SF-36 subscales or summary scales, worsening from baseline",[4]; valbenazine group,No worsening from baseline was observed for the valbenazine group
same,"Neuro-QoL Lower Extremity Function T Score CFB @ week 12, LS Mean",[5]; valbenazine group,−0.27
same,"Neuro-QoL Lower Extremity Function T Score CFB @ week 12, LS Mean, Difference",[5]; valbenazine vs placebo,−0.88
same,CGI-C response rate difference between treatment groups (valbenazine minus placebo),[6]; Week 2,"follows: Week 2 (7.71% [95% CI: −0.93, 17.87], nominal p = 0.1157),"
same,CGI-C response rate difference between treatment groups (valbenazine minus placebo),[6]; Week 4,"Week 4 (20.42% [95% CI: 7.53, 33.00], nominal p = 0.0012), Week 6"
same,CGI-C response rate difference between treatment groups (valbenazine minus placebo),[6]; Week 6,"(20.14% [95% CI: 4.04, 35.89], nominal p = 0.0151), Week 8"
same,CGI-C response rate difference between treatment groups (valbenazine minus placebo),[6]; Week 8,"(34.50% [95% CI: 16.46, 49.76], nominal p = 0.0001), and Week 10"
same,CGI-C response rate difference between treatment groups (valbenazine minus placebo),[6]; Week 10,"(24.80% [95% CI: 6.55, 41.18], nominal p = 0.0065)."
same,"CGI-C @ week 12, % responders","[6]; Week 12, valbenazine group",42.9%
same,"CGI-C @ week 12, % responders, Difference",[6]; [7],29.7%
